# From patent US12655111B2, “Phenazine-based compounds” (CMBLU Energy AG, priority 2020, dated 2026)
# Experiment: Redox flow battery cell test (flow-through laboratory cell), galvanostatic charge/discharge cycling with phenazine anolyte and ferrocyanide catholyte
# Assay type: physicochemical
# Conditions: range: (i) upper charging value minus initial discharging value, (ii) initial charging value minus ultimate discharging value; from Table 1 (for II 0.87M)
# Excerpt: FT-Cells (“Flow Through”):
# For electrochemical characterization, a small laboratory cell was used. A graphite felt (with an area of 6 cm^2, 6 mm in thickness, supplier: SGL Sigracell GFA 6EA) in combination with a bipolar plate (4.1 cm×4.1 cm, SGL Sigracell TF6) was employed as both the positive and negative electrode. A cation exchange membrane (630K or 620PE, supplier: fumatech) was used to separate the positive and negative electrolytes. The membrane was conditioned in 0.5 M Base (KOH/NaOH=50 mol %/50 mol %) for at least 150 h prior to each test. An anolyte volume of 12 mL was used for every experiment while the pH of the anolyte solution is adjusted using a 1:1 mixture of KOH/NaOH or solely KOH. The catholyte compositions are listed in table 1 and the catholyte was always employed in at least 1.05 fold stoichiometric excess in order to obtain charge limitation solely due to the phenazine electrolyte (see table 1). The catholyte volume for (IV) is 60 mL (0.4 M KOH; 0.4 M NaOH), for (III) 30 mL (0.2 M KOH and 0.2 M NaOH), and for (I) 20 mL (0.3 M KOH and 0.3 M NaOH). Both electrolytes were pumped by peristaltic pumps (Drifton BT100-1L, Cole Parmer Ismatec MCP and BVP Process IP 65) at a rate of 24 mL/min to the corresponding electrodes, respectively. The electrolyte reservoirs were purged with N2 gas for 1 h before start of charging and the inert atmosphere was maintained during the course of the experiments.
# Electrochemical testing was performed on a BaSyTec (BaSyTec GmbH, 89176 Asselfingen, Germany) or a Bio-Logic (Bio-Logic Science Instruments, Seyssinet-Pariset 38170, France) battery test system. For galvanostatic cycling, the cell was charged at a current density of […] and discharged at the same current density with the in table 1 listed voltage cut-offs. […]
row,difference in plateaus [V],Structure (SMILES)
1,0.29-0.32 V,"O=S(=O)(O)c1ccc2nc3cc(O)c(O)cc3nc2c1 [DHPS, 7,8-Dihydroxyphenazine-2-sulfonic acid, reference compound]"
2,0.15-0.16 V,"CN(C)c1cc2nc3ccc(S(=O)(=O)O)cc3nc2cc1O [I, 7-(dimethylamino)-8-hydroxyphenazine-2-sulfonic acid]"
3,0.20-0.25 V,"CN(CCO)c1cc2nc3ccc(S(=O)(=O)O)cc3nc2cc1O [IV, 7-[(2-hydroxyethyl)(methyl)amino]-8-hydroxyphenazine-2-sulfonic acid]"
